Experimental data reported in patent US12168781B2, “Production method for T cells or NK cells, medium for culturing T cells or NK cells, method for culturing T cells or NK cells, method for maintaining undifferentiated state of undifferentiated T cells, and growth-accelerating agent for T cells or NK cells” (KIRIN HOLDINGS KABUSHIKI KAISHA, priority 2018, dated 2024).

How the values were obtained:
T-iPS-T cells = assay: Number of viable T-iPS-T cells under feeder-free culture (CD3/CD28 Dynabeads, Cell Count Reagent SF, absorbance 450 nm/650 nm); type: cell-based, human; conditions: for number of viable cells (OD value): T-iPS-T cells after 1st expansion, DMSO control 0.225 ± 0.017
Protocol: T-iPS-T cells (1,500 cells/well) after 1st expansion were seeded and cultured in RPMI-1640 medium (SIGMA, R8758) supplemented with 15% FBS (CORNING, 35-076-CV, 35076104R), 1% PSG (SIGMA, G1146), PAA (50 μg/mL, Nacalai Tesque, 03420-52), ITS-G, IL-7 (5 ng/mL), IL-12 (50 ng/mL), IL-15 (5 ng/mL), IL-18 (50 ng/mL), IL-21 (20 ng/mL), and z-VAD-fmk (10 μM). The cells were stimulated by adding CD3/CD28 Dynabeads (Gibco, 11131D, the “Dynabeads” is a registered trademark) (4,500 beads/well) thereto, and 1,080 compounds [MedChemExpress, Apoptosis Compound Library (HY-L003), Cell Cycle/DNA Damage Compound Library (HY-L004), JAK/STAT Compound Library (HY-L008), MAPK Compound Library (HY-L010), NF-kappaB Compound Library (HY-L014), PI3K/Akt/mTOR Compound Library (HY-L015), and Wnt/Hedgehog/Notch Compound Library (HY-L020)] were added thereto (one type per well) at a final concentration of 1 μM, and then, the cells were cultured at 37° C. under 5% CO2.
DMSO (0.1%) that is a solvent for the compound was used as a control. After 6 days, the number of viable cells was measured using Cell Count Reagent SF (Nacalai Tesque, 07553) and a microplate reader (SoftMax Pro 5.X, Molecular Devices, 450 nm/650 nm).
A calibration curve for cell number was set as follows. When measuring the number of viable cells, 12-point serial dilution was performed for the same cells as those used in the screening, and the cells were seeded (0 to 1,536,000 cells/well) in RPMI-1640 medium supplemented with 15% FBS, 1% PSG, PAA, ITS-G, IL-7 (5 ng/mL) and IL-15 (5 ng/mL). The number of viable cells was measured together with the screening samples, and a calibration curve for WST-8 assay was formed.
In order to further evaluate the results obtained in Example 4, reproducibility was evaluated. As a method therefor, the same method as in Example 4 was used to carry out culturing and evaluation. As compounds, 20 compounds were selected and used among the compounds used in Example 4 including berbamine, and DMSO (0.1%) that is a solvent for the compound was used as a control. Note that in a statistical analysis, a Student's t-test was used (*: p<0.05).
The effect of a berbamine derivative on the proliferation of T cells was verified. As a method therefor, T-iPS-T cells after 1st expansion were cultured in the same manner as in Example 4, and berbamine (BBM) or each of 13 types of derivatives [BBMD1 to 13, Hebei Sundia MediTech Company Ltd.] was added thereto (one type per well) at a final concentration of 0.1 nM, 1 nM, 10 nM, 100 nM, or 1 μM, and then, the cells were cultured at 37° C. under 5% CO2. DMSO (0.1%) that is a solvent for the compound was used as a control.
After culturing for 6 days, the number of viable cells was measured using Cell Count Reagent SF (Nacalai Tesque, 07553) and a microplate reader (SoftMax Pro 5. X, Molecular Devices, 450 nm/650 nm), and the OD value was used as data. Note that in a statistical analysis, a Student's t-test was used (*: p<0.05). 1.

CD8 T cells = assay: Engraftment into mice of CD8 T cells cultured with the compound; type: in vivo; conditions: cells cultured 10 days with 1 μM, two weeks after transplantation into NSG mice, FIG. 19(B)
Protocol: The effect of cells cultured with berbamine on engraftment into mice was examined. As a method therefor, CD8 T cells were purified from PBMCs (CTL, Inc.) derived from a healthy subject using CD8 T Cell Isolation Kit, human (Miltenyi, 130-096-495). The purified CD8 T cells (20,000 cells/well) were seeded, and berbamine (BBM) at 1 μM or MilliQ water that is a solvent for the compound as a control was added thereto, and the cells were cultured in the same culture medium by the same stimulation method as in additional Example 6, and the cells cultured for 10 days were used as cells to be transplanted. NSG male mice at 6 to 11 weeks of age (Charles River Japan) were used as experimental animals and transplantation was performed through the tail vein (approximately 4×10^6 cells). Two weeks after the transplantation, the spleen, peripheral blood and bone marrow were collected, and the CD8β and CD45 positive rates were analyzed by FACS. In the FACS, after the spleen and bone marrow were subjected to a homogenization treatment, and the peripheral blood was subjected to a hemolysis treatment, the resulting materials were transferred to a 96-well plate, followed by washing with a staining solution (PBS containing 2% FBS), and then staining with CD8β-PE-cy7 (eBioscience, 25-5273-42) and CD45-APC-Cy7 (BioLegend, 304014). After washing, the cells were resuspended in the staining solution containing PI. An analysis was performed using a BD LSR Fortessa cytometer (BD Bioscience). The positive rate of CD8β(+)CD45(+) cells in the PI-negative cell population analyzed by FlowJo 9 was measured. Note that in a statistical analysis, a Student's t-test was used (*: p<0.05).

[1] = tested on: regulatory T cells (Treg); assay: Proliferation of regulatory T cells (number of FoxP3-positive cells); type: cell-based, human; conditions: 1 μM, 6 days, CD3 T cells of 3 healthy donors, FIG. 17
Protocol: The usefulness of berbamine (BBM) in the proliferation of regulatory T cells (Treg) was verified. As a method therefor, CD3 T cells were purified from PBMCs (CTL, Inc.) derived from 3 healthy donor subjects in the same manner as in additional Example 6 and cultured for 6 days. After culturing for 6 days, the number of viable cells was counted by a trypan blue method and the ratio of CD25(+)FoxP3(+) cells was analyzed by FACS.
In the FACS, the cultured cells were sorted into facs tubes, washed with a staining solution (PBS containing 2% FBS), and then stained with CD3-APC (BioLegend, 300421), CD4-BV510 (BioLegend, 317444), CD8-Pacific Blue (BD 558207), and CD25-FITC (BioLegend, 302604).
After the cells were further washed, intracellular staining was performed using FoxP3/Transcription Factor Staining Buffer Set (eBioscience, 00-5523) and FoxP3-PE (eBioscience, 12-4776-41), and measurement was performed using a BD LSRFortessa cytometer (BD Bioscience).
The value obtained by multiplying the positive rate of FoxP3(+) cells in the CD4(+) cells analyzed by FlowJo 9 by the number of viable cells was defined as the number of FoxP3-positive cells.

**Q.** What does the source list for `COc1cc2c3cc1Oc1c(OC)c(OC)cc4c1[C@@H](Cc1ccc(O)c(c1)Oc1ccc(cc1)C[C@@H]3N(C)CC2)N(C)CC4` [berbamine]?
**A.** number of viable cells (OD value) (T-iPS-T cells; 0.1 nM, 6 days): 0.257 ± 0.018; number of viable cells (OD value) (T-iPS-T cells; 1 nM, 6 days): 0.266 ± 0.024; number of viable cells (OD value) (T-iPS-T cells; 10 nM, 6 days): 0.275 ± 0.019 *; number of viable cells (OD value) (T-iPS-T cells; 100 nM, 6 days): 0.282 ± 0.031 *; number of cells compared with DMSO (reproducibility of the screening) (T-iPS-T cells; 1 μM, 20 compounds, Student's t-test, FIG. 11): significant increase in the number of cells; number of viable cells, rank among the 1,080 compounds screened (T-iPS-T cells; 1 μM, 6 days, FIG. 6): highest number of viable cells; number of viable cells (OD value) (T-iPS-T cells; 1 μM, 6 days): 0.505 ± 0.034 ***; positive rate of CD8β(+)CD45(+) cells (engraftment) compared with cells cultured with MilliQ water (CD8 T cells; bone marrow): significant engraftment; positive rate of CD8β(+)CD45(+) cells (engraftment) compared with cells cultured with MilliQ water (CD8 T cells; peripheral blood): significant engraftment; positive rate of CD8β(+)CD45(+) cells (engraftment) compared with cells cultured with MilliQ water (CD8 T cells; spleen): significant engraftment; number of FoxP3-positive cells compared with MilliQ water [1]: increase in the number of FoxP3-positive cells
